Active and inactive are the calls of the source. No cut-off for these calls is given here.
Legend:
[1] = system: MDA-MB-231; experiment: Induction of apoptosis in human MDA-MB-231 cells assessed as proportion of late apoptotic cells at 0.5 uM incubated for 36 hrs by AnnexinV-FITC/PI staining based flow cytometry (reference value: […]%); assay type: functional
[2] = system: MCF7; experiment: Antiproliferative activity against human MCF7 cells assessed as inhibition of cell viability incubated for 3 to 4 days by CCK8 assay; assay type: functional, cell-based; details: time 3-4 day
[3] = system: MDA-MB-231; experiment: Induction of apoptosis in human MDA-MB-231 cells assessed as proportion of early apoptotic cells at 1 uM incubated for 36 hrs by AnnexinV-FITC/PI staining based flow cytometry (reference value: 5.05%); assay type: functional
[4] = system: MDA-MB-231; experiment: Induction of cell cycle arrest in human MDA-MB-231 cells assessed as proportion of cells at S phase at 0.2 uM incubated for 24 hrs by propidium iodide staining based flow cytometry (reference value: 28.2%); assay type: functional
[5] = system: MDA-MB-231; experiment: Induction of apoptosis in human MDA-MB-231 cells assessed as proportion of necrotic cells at 0.5 uM incubated for 36 hrs by AnnexinV-FITC/PI staining based flow cytometry (reference value: 0%); assay type: functional
[6] = system: CWR22R; experiment: Antiproliferative activity against human 22Rv1 cells assessed as inhibition of cell viability incubated for 3 to 4 days by CCK8 assay; assay type: functional, cell-based; details: time 3-4 day
[7] = system: MDA-MB-231; experiment: Antitumor activity against human MDA-MB-231 cells xenografted in NOD-SCID mouse assessed as inhibition of tumor growth at 20 mg/kg, ip qd for 10 days; assay type: functional; details: MDA-MB-231, 240 h, time 10 day, read-out: TGI
[8] = system: MDA-MB-231; experiment: Induction of cell cycle arrest in human MDA-MB-231 cells assessed as proportion of cells at G1 phase at 0.2 uM incubated for 24 hrs by propidium iodide staining based flow cytometry (reference value: 59.5%); assay type: functional
[9] = system: MDA-MB-231; experiment: Induction of apoptosis in human MDA-MB-231 cells assessed as proportion of early apoptotic cells at 0.5 uM incubated for 36 hrs by AnnexinV-FITC/PI staining based flow cytometry (reference value: 5.05%); assay type: functional
[10] = system: MDA-MB-231; experiment: Induction of cell cycle arrest in human MDA-MB-231 cells assessed as increase in p21 expression at 0.1 to 0.2 uM incubated for 24 hrs by western blot analysis; assay type: functional, cell-based; details: dose 0.1-0.2 µM
[11] = system: MDA-MB-231; experiment: Induction of cell cycle arrest in human MDA-MB-231 cells assessed as proportion of cells at G2 phase at 0.2 uM incubated for 24 hrs by propidium iodide staining based flow cytometry (reference value: 11.6%); assay type: functional
[12] = system: MDA-MB-231; experiment: Induction of apoptosis in human MDA-MB-231 cells assessed as proportion of necrotic cells at 1 uM incubated for 36 hrs by AnnexinV-FITC/PI staining based flow cytometry (reference value: 0%); assay type: functional
[13] = system: MDA-MB-231; experiment: Induction of apoptosis in human MDA-MB-231 cells assessed as increase in cleaved caspase-3 expression at 0.5 uM incubated for 36 hrs by western blot analysis; assay type: functional, cell-based
[14] = system: MDA-MB-231; experiment: Induction of apoptosis in human MDA-MB-231 cells assessed as proportion of late apoptotic cells at 1 uM incubated for 36 hrs by AnnexinV-FITC/PI staining based flow cytometry (reference value: […]%); assay type: functional
[15] = system: MDA-MB-231; experiment: Induction of apoptosis in human MDA-MB-231 cells assessed as proportion of viable cells at 0.5 uM incubated for 36 hrs by AnnexinV-FITC/PI staining based flow cytometry (reference value: 93.6%); assay type: functional
[16] = system: MDA-MB-231; experiment: Induction of cell cycle arrest in human MDA-MB-231 cells assessed as proportion of cells at G2 phase at 0.1 uM incubated for 24 hrs by propidium iodide staining based flow cytometry (reference value: 11.6%); assay type: functional
[17] = system: A549; experiment: Antiproliferative activity against human A549 cells assessed as inhibition of cell viability incubated for 3 to 4 days by CCK8 assay; assay type: functional, cell-based; details: time 3-4 day
[18] = system: MDA-MB-231; experiment: Induction of cell cycle arrest in human MDA-MB-231 cells assessed as decrease in cyclin E1 expression at 0.1 to 0.2 uM incubated for 24 hrs by western blot analysis; assay type: functional, cell-based; details: dose 0.1-0.2 µM
[19] = system: MDA-MB-231; experiment: Induction of cell cycle arrest in human MDA-MB-231 cells assessed as downregulation of cyclin B1 expression at 0.1 to 0.2 uM incubated for 24 hrs by western blot analysis; assay type: functional, cell-based; details: dose 0.1-0.2 µM
[20] = system: MDA-MB-231; experiment: cells; details: Homo sapiens, MDA-MB-231, 72 h
Description: Antiproliferative activity against human MDA-MB-231 cells assessed as inhibition of cell viability incubated for 72 hrs by CCK8 assay

[21] = system: MDA-MB-231; experiment: Induction of cell cycle arrest in human MDA-MB-231 cells assessed as proportion of cells at G1 phase at 0.1 uM incubated for 24 hrs by propidium iodide staining based flow cytometry (reference value: 59.5%); assay type: functional
[22] = system: MDA-MB-231; experiment: Induction of apoptosis in human MDA-MB-231 cells assessed as increase in cleaved caspase-9 expression at 0.5 uM incubated for 36 hrs by western blot analysis; assay type: functional, cell-based
[23] = system: MDA-MB-231; experiment: Induction of apoptosis in human MDA-MB-231 cells assessed as proportion of viable cells at 1 uM incubated for 36 hrs by AnnexinV-FITC/PI staining based flow cytometry (reference value: 93.6%); assay type: functional
[24] = Toxicity against NOD-SCID mouse xenografted with human MDA-MB-231 cells assessed as adverse effects at 15 mg/kg, ip administered 5 days per week for 27 days; assay type: organism-based; details: in vivo, 648 h, time 27 day
[25] = Toxicity against NOD-SCID mouse xenografted with human MDA-MB-231 cells assessed as effect on body weight at 15 mg/kg, ip administered 5 days per week for 27 days; assay type: organism-based; details: in vivo, 648 h, time 27 day
[26] = system: MDA-MB-231; experiment: Antitumor activity against human MDA-MB-231 cells xenografted in NOD-SCID mouse assessed as inhibition of tumor growth at 15 mg/kg, ip administered 5 days per week for 27 days; assay type: functional; details: MDA-MB-231, 648 h, time 27 day, read-out: TGI
[27] = system: MDA-MB-231; experiment: Antitumor activity against human MDA-MB-231 cells xenografted in NOD-SCID mouse assessed as reduction in tumor weight at 15 mg/kg, ip administered 5 days per week for 27 days; assay type: functional; details: MDA-MB-231, 648 h, time 27 day
[28] = system: MDA-MB-231; experiment: Induction of cell cycle arrest in human MDA-MB-231 cells assessed as proportion of cells at S phase at 0.1 uM incubated for 24 hrs by propidium iodide staining based flow cytometry (reference value: 28.2%); assay type: functional
[29] = system: MDA-MB-231; experiment: Induction of apoptosis in human MDA-MB-231 cells assessed as increase in cleaved PARP-1 expression at 0.5 uM incubated for 36 hrs by western blot analysis; assay type: functional, cell-based

Q: Which results are given for `Cc1nc(Nc2ncc(C(=O)Nc3c(C)cccc3Cl)s2)cc(N2CCN(CCOC(=O)C(C)NC(=O)C[C@@H]3N=C(c4ccc(Cl)cc4)c4c(sc(C)c4C)-n4c(C)nnc43)CC2)n1` (some centres undefined)?
A: Activity [1]: 6.01%; Activity [2]: Active; Activity [3]: 16.5%; Activity [4]: 10.1%; Activity [5]: 0%; Activity [6]: Active; inhibition in vivo at 20 mg/kg [7]: 75.4%; Activity [8]: 84.4%; Activity [9]: 22.9%; Activity [10]: Active; Activity [11]: 4.96%; Activity [12]: 0%; Activity [13]: Active; Activity [14]: 7.14%; Activity [15]: 71.1%; Activity [16]: 6.47%; Activity [17]: Active; Activity [18]: Active; Activity [19]: Active; IC50 [20]: 34 nM; Activity [21]: 80.4%; Activity [22]: Active; Activity [23]: 76.3%; Activity [24]: Non-Toxic; Activity [25]: Non-Toxic; inhibition in vivo at 15 mg/kg [26]: 70.7%; inhibition in vivo at 15 mg/kg [27]: 66.1%; Activity [28]: 12.8%; Activity [29]: Active

From ChEMBL document CHEMBL5528017, “Design and synthesis of dual BRD4/Src inhibitors for treatment of triple-negative breast cancer” (Eur J Med Chem, 2024)
